# Data published in the NIST ThermoML archive (doi:10.1016/j.jct.2008.01.014).
# Numbers after ± are expanded uncertainties.
# Conditions: Liquid, Ebulliometric method (Recirculating still)
vapor or sublimation pressure (273.15 K) [kPa],vapor or sublimation pressure (288.15 K) [kPa],vapor or sublimation pressure (303.15 K) [kPa],vapor or sublimation pressure (318.15 K) [kPa],vapor or sublimation pressure (333.15 K) [kPa],vapor or sublimation pressure (348.15 K) [kPa],Structure (SMILES)
133 ± 2,224 ± 2,353 ± 2,538 ± 3,787 ± 4,1110 ± 5,C=C(C)C [2-methylpropene]
626 ± 3,972 ± 4,1442 ± 6,2063 ± 9,2875 ± 12,–,"CC(F)(F)F [1,1,1-trifluoroethane]"
